ChEMBL document CHEMBL5584296, “Discovery of Novel Pyrimidine-Based Derivatives as Nav1.2 Inhibitors with Efficacy in Mouse Models of Epilepsy” (J Med Chem, 2024)

Experiments:
[1] = AUC (0 to infinity) in male ICR mouse at 1 mg/kg, iv measured after 24 hrs by LC-MS/MS analysis; assay type: ADME, organism-based; conditions: in vivo
Mus musculus [2] = experiment: Antiepileptic activity in MES-induced seizure male ICR mouse model assessed as protection against tonic hind limb extension at 2 mg/kg, ip measured after 30 mins relative to control; assay type: functional; conditions: 0.5 h
Mus musculus [3] = experiment: Antiepileptic activity in 6 Hz(32 mA)-induced seizure male C57BL mouse model assessed as protection against seizure at 50 mg/kg, ip administered for 30 mins by epilepsy test; assay type: functional; conditions: 0.5 h
[4] = MRT (0 to infinity) in male ICR mouse at 1 mg/kg, iv measured after 24 hrs by LC-MS/MS analysis; assay type: ADME, organism-based; conditions: in vivo
Mus musculus [5] = experiment: Antiepileptic activity in MES-induced seizure male ICR mouse model assessed as protection against tonic hind limb extension at 10 mg/kg, ip measured after 30 mins relative to control; assay type: functional; conditions: 0.5 h
[6] = Drug concentration in male ICR mouse brain at 10 mg/kg, ip measured after 0.25 hrs by LC-MS/MS analysis; assay type: ADME, organism-based; conditions: read-out: Ct
[7] = Tmax in male ICR mouse at 10 mg/kg, ip measured after 24 hrs by LC-MS/MS analysis; assay type: ADME, organism-based; conditions: in vivo
[8] = target: Sodium channel protein type 8 subunit alpha (Homo sapiens) (UniProt Q9UQD0); experiment: Inhibition of human Nav1.6 expressed in CHO cells assessed as test to control ratio at 0.1 uM by whole cell voltage clamp electrophysiological analysis; assay type: cell-based
[9] = AUC (0 to infinity) in male ICR mouse at 10 mg/kg, ip measured after 24 hrs by LC-MS/MS analysis; assay type: ADME, organism-based; conditions: in vivo
[10] = Half-life in male ICR mouse at 20 mg/kg, po measured after 24 hrs by LC-MS/MS analysis; assay type: ADME, organism-based; conditions: in vivo
Mus musculus [11] = experiment: Antiepileptic activity in 6 Hz(32 mA)-induced seizure male C57BL mouse model assessed as protection against seizure at 100 mg/kg, ip administered for 30 mins by epilepsy test; assay type: functional; conditions: 0.5 h
[12] = Neurotoxicity in male ICR mouse administered intraperitoneally for 30 mins; assay type: toxicity; conditions: in vivo, route ip
[13] = target: T1, Sodium channel protein type 2 subunit alpha (Homo sapiens, UniProt Q99250); experiment: Inhibition of human Nav1.2 expressed in HEK293 cells at 0.1 uM measured after 5 mins by whole cell voltage clamp electrophysiological analysis relative to control; assay type: cell-based
Target sequence in this assay (Q99250 whole entry, looked up): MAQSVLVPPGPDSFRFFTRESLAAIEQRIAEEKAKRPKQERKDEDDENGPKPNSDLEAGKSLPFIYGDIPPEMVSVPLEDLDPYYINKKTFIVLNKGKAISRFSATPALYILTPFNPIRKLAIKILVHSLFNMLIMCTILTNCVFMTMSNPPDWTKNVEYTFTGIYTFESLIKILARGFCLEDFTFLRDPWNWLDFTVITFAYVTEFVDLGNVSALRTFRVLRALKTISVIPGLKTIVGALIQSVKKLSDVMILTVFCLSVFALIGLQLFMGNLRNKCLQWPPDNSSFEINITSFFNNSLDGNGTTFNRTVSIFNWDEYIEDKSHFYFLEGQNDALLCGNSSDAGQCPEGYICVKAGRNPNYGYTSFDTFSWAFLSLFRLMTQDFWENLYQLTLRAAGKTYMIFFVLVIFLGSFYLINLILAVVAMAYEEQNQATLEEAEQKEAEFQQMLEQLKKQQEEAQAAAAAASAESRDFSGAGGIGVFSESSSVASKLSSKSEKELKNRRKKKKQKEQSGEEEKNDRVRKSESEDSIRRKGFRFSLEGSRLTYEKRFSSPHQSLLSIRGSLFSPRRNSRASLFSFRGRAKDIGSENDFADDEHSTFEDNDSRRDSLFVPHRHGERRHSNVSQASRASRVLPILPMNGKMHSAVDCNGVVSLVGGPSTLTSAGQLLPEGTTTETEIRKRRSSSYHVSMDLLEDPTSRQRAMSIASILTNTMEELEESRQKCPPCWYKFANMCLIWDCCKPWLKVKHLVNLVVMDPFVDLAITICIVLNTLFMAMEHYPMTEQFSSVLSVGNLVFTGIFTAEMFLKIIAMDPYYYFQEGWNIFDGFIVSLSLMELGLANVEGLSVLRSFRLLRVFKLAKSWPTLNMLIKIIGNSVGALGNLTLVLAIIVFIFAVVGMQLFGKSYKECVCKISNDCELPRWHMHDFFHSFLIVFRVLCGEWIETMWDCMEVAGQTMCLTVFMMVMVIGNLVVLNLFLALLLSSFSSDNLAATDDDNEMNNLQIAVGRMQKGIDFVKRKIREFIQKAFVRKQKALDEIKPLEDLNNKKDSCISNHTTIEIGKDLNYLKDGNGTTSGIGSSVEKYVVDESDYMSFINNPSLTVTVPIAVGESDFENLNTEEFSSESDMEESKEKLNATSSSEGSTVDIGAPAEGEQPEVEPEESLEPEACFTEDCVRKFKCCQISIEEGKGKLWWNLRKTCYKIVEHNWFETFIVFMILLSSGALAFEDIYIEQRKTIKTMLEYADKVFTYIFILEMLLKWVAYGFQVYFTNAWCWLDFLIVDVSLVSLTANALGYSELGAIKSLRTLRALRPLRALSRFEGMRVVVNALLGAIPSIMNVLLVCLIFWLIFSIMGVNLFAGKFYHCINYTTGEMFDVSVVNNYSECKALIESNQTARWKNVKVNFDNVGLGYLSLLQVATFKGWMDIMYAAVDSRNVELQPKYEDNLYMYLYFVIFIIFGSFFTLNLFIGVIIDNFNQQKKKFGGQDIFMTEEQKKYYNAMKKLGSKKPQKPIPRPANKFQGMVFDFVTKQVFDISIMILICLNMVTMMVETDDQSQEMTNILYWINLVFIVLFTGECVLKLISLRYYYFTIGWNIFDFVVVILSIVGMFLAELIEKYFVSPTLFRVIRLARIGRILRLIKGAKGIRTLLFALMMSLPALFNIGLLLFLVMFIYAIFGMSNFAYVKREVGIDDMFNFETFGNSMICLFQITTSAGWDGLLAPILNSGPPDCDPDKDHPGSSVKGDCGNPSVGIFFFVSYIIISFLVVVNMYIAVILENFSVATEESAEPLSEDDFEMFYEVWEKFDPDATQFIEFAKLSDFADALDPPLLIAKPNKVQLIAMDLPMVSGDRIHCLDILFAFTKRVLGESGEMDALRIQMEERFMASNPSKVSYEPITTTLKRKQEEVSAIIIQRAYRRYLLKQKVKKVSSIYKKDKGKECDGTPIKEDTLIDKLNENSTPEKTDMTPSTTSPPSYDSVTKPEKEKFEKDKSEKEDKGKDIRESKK

[14] = target: T1, Sodium channel protein type 2 subunit alpha; experiment: Inhibition of human Nav1.2 expressed in HEK293 cells at -120 mv holding potential measured after 5 mins by whole cell voltage clamp electrophysiological analysis; assay type: cell-based
Target sequence in this assay (Q99250 whole entry): as the sequence (Q99250 whole entry, looked up) above

[15] = Drug concentration in male ICR mouse plasma at 10 mg/kg, ip measured after 0.5 hrs by LC-MS/MS analysis; assay type: ADME, organism-based
[16] = target: Sodium channel protein type 8 subunit alpha (Homo sapiens) (UniProt Q9UQD0); experiment: Inhibition of human Nav1.6 expressed in CHO cells assessed as test to control ratio at 1 uM by whole cell voltage clamp electrophysiological analysis; assay type: cell-based
[17] = target: T1, Sodium channel protein type 2 subunit alpha; experiment: Inhibition of human Nav1.2 expressed in HEK293 cells assessed as test to control ratio at 1 uM measured after 5 mins by whole cell voltage clamp electrophysiological analysis; assay type: cell-based
Target sequence in this assay (Q99250 whole entry, looked up): as above

[18] = Cmax in male ICR mouse at 20 mg/kg, po measured after 24 hrs by LC-MS/MS analysis; assay type: ADME, organism-based; conditions: in vivo
[19] = target: Sodium channel protein type 1 subunit alpha (Homo sapiens) (UniProt P35498); experiment: Inhibition of human Nav1.1 expressed in HEK293 cells assessed as test to control ratio at 0.1 uM by whole cell voltage clamp electrophysiological analysis; assay type: cell-based
[20] = target: T1, Sodium channel protein type 2 subunit alpha; experiment: Inhibition of human Nav1.2 expressed in HEK293 cells assessed as effect on steady state activation by measuring half activation potential at 10 uM (reference value: -33 mV); assay type: cell-based
Target sequence in this assay (Q99250 whole entry, looked up): as above

[21] = Clearance in male ICR mouse at 1 mg/kg, iv measured after 24 hrs by LC-MS/MS analysis; assay type: ADME, organism-based; conditions: in vivo
[22] = Drug concentration in male ICR mouse plasma at 20 mg/kg, po measured after 0.25 hrs by LC-MS/MS analysis; assay type: ADME, organism-based
[23] = MRT (0 to infinity) in male ICR mouse at 20 mg/kg, po measured after 24 hrs by LC-MS/MS analysis; assay type: ADME, organism-based; conditions: in vivo
[24] = Neurotoxicity in male ICR mouse assessed as motor impairment at 30 mg/kg, ip administered for 30 mins by rotarod test relative to control; assay type: toxicity, organism-based; conditions: in vivo, 0.5 h
[25] = Drug concentration in male ICR mouse plasma at 10 mg/kg, ip measured after 0.25 hrs by LC-MS/MS analysis; assay type: ADME, organism-based
[26] = target: T1, Sodium channel protein type 2 subunit alpha; experiment: Inhibition of human Nav1.2 expressed in HEK293 cells assessed as test to control ratio at 0.1 uM measured after 5 mins by whole cell voltage clamp electrophysiological analysis; assay type: cell-based
Target sequence in this assay (Q99250 whole entry, looked up): as above

[27] = Tmax in male ICR mouse at 20 mg/kg, po measured after 24 hrs by LC-MS/MS analysis; assay type: ADME, organism-based; conditions: in vivo
[28] = MRT (0 to infinity) in male ICR mouse at 10 mg/kg, ip measured after 24 hrs by LC-MS/MS analysis; assay type: ADME, organism-based; conditions: in vivo
[29] = Neurotoxicity in male ICR mouse assessed as motor impairment at 20 mg/kg, ip administered for 30 mins by rotarod test relative to control; assay type: toxicity, organism-based; conditions: in vivo, 0.5 h
Mus musculus [30] = experiment: Antiepileptic activity in MES-induced seizure male ICR mouse model assessed as protection against tonic hind limb extension at 5 mg/kg, ip measured after 30 mins relative to control; assay type: functional; conditions: 0.5 h
Mus musculus [31] = experiment: Antiepileptic activity in 6 Hz(32 mA)-induced seizure male C57BL mouse model assessed as reduction in seizure time at 100 mg/kg, ip administered for 30 mins by epilepsy test (reference value: 22.7 +/- 1.6 sec); assay type: functional; conditions: 0.5 h
[32] = Drug concentration in male ICR mouse cerebrospinal fluid at 10 mg/kg, ip measured after 0.25 hrs by LC-MS/MS analysis; assay type: ADME, organism-based; conditions: read-out: Ct
[33] = Bioavailability in male ICR mouse at 10 mg/kg, ip measured after 24 hrs by LC-MS/MS analysis; assay type: ADME, organism-based; conditions: in vivo
[34] = Half-life in male ICR mouse at 10 mg/kg, ip measured after 24 hrs by LC-MS/MS analysis; assay type: ADME, organism-based; conditions: in vivo
[35] = Ratio of drug concentration in male ICR mouse brain to plasma at 20 mg/kg, po measured after 0.5 hrs by LC-MS/MS analysis; assay type: ADME, organism-based; conditions: read-out: BPR
[36] = Drug concentration in male ICR mouse cerebrospinal fluid at 20 mg/kg, po measured after 0.25 hrs by LC-MS/MS analysis; assay type: ADME, organism-based; conditions: read-out: Ct
[37] = target: T1, Sodium channel protein type 2 subunit alpha; experiment: Inhibition of human Nav1.2 expressed in HEK293 cells assessed as test to control ratio at 10 uM measured after 5 mins by whole cell voltage clamp electrophysiological analysis; assay type: cell-based
Target sequence in this assay (Q99250 whole entry, looked up): as above

[38] = Oral bioavailability in male ICR mouse at 20 mg/kg measured after 24 hrs by LC-MS/MS analysis; assay type: ADME, organism-based; conditions: in vivo
Mus musculus [39] = experiment: Antiepileptic activity in MES-induced seizure male ICR mouse model assessed as protection against tonic hind limb extension administered intraperitoneally for 30 mins; assay type: functional; conditions: 0.5 h, route ip
[40] = Cmax in male ICR mouse at 10 mg/kg, ip measured after 24 hrs by LC-MS/MS analysis; assay type: ADME, organism-based; conditions: in vivo

Sodium channel protein type 8 subunit alpha (Homo sapiens), sequence (Q9UQD0 whole entry, looked up): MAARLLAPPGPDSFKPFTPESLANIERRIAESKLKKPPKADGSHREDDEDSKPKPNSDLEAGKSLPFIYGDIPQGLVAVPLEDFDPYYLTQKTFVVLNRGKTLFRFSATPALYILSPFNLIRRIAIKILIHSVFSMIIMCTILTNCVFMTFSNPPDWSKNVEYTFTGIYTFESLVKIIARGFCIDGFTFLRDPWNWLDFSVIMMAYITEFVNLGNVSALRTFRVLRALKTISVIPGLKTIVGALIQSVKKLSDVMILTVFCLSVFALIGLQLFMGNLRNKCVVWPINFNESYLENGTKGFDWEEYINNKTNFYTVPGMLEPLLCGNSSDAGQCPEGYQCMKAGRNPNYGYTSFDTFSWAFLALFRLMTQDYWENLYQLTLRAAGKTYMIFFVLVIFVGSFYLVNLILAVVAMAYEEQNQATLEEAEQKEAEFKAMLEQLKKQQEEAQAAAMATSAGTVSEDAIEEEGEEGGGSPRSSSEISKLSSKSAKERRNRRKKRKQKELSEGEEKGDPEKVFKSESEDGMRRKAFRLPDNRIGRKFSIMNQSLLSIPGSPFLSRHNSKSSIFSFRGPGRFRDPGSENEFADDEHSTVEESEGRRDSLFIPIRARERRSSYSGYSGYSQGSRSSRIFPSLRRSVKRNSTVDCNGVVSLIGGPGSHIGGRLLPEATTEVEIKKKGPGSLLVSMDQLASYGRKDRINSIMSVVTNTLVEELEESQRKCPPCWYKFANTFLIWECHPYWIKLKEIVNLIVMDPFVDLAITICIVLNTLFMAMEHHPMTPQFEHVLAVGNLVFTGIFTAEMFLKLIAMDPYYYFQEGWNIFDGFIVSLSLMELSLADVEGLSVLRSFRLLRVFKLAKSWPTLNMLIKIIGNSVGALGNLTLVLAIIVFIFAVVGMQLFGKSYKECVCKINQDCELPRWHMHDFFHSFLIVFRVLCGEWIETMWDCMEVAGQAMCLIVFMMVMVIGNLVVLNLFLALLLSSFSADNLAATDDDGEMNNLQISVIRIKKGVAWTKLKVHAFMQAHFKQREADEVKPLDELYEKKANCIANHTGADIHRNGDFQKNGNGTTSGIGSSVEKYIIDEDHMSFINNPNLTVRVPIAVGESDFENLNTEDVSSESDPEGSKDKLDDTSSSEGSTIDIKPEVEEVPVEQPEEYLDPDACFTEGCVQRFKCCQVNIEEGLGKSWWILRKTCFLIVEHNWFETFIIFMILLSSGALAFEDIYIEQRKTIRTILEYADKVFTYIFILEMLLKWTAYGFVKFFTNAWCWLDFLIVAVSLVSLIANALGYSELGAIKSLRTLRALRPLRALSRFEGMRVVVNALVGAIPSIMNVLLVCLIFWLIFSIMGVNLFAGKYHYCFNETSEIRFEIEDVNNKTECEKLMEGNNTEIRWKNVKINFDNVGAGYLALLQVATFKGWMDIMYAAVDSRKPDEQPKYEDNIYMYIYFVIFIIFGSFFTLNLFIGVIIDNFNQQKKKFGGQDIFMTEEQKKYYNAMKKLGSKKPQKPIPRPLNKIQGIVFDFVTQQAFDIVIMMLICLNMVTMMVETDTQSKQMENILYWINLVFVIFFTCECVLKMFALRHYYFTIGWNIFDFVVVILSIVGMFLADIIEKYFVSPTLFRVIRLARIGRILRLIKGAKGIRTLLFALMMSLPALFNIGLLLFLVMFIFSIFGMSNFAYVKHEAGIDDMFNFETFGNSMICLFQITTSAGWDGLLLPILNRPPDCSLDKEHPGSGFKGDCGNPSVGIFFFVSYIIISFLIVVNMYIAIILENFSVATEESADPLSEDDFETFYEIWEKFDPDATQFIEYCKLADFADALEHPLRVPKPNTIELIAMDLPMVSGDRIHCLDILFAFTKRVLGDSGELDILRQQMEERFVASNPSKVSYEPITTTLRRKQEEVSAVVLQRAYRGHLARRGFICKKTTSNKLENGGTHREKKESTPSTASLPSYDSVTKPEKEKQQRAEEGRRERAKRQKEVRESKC

AUC(0-inf) [1]: 184 ng·h/mL | MRT inf [4]: 33.6 min | concentration at 0.25 h [6]: 1900 ng/g | Tmax [7]: 7.2 min | T/C [8]: 0.53 | AUC(0-inf) [9]: 793 ng·h/mL | half-life [10]: 82.8 min | inhibition [13]: 40% | IC50 [14]: 11 µM | concentration at 0.5 h [15]: 221 ng/mL | T/C [16]: 0.06 | T/C [17]: 0.03 | Cmax [18]: 63.4 ng/mL | T/C [19]: 0.65 | V1/2 [20]: -31 mV | clearance [21]: 92.1 mL/min/kg | concentration at 0.25 h [22]: 166 ng/mL | MRT inf [23]: 130 min | concentration at 0.25 h [25]: 620 ng/mL | T/C [26]: 0.6 | Tmax [27]: 15 min | MRT inf [28]: 51 min | concentration at 0.25 h [32]: 11.7 ng/g | bioavailability [33]: 43% | half-life [34]: 56.4 min | Kp at 0.5 h [35]: 3.2 | concentration at 0.25 h [36]: 22.1 ng/g | T/C [37]: 0.02 | bioavailability [38]: 3% | Cmax [40]: 956 ng/mL
SMILES: COc1cccc(-c2cc(N3CCCc4ccccc4C3)nc(N)n2)c1
Activity (Mus musculus [2]): 25% | Activity (Mus musculus [3]): 0% | Activity (Mus musculus [5]): 88% | Activity (Mus musculus [11]): 25% | TD50 at 0.5 h [12]: 26.1 mg/kg | Activity [24]: 88% | Activity [29]: 13% | Activity (Mus musculus [30]): 80% | Time (Mus musculus [31]): 12.9 s | ED50 (Mus musculus [39]): 3.2 mg/kg
